Literature values as cited in patent US20040208906A1, “Pharmaceutical composition for topical administration” (Daiichi Suntory Pharma Co., Ltd., priority 1999, published 2004).

Columns and labels:
[1] = tested on: Gram-positive bacteria (MSSA, Streptococcus pyogenes, Streptococcus pneumoniae, PRSP, oral streptococci, enterococci); conditions: Gram-positive bacteria incl. MSSA
[2] = tested on: pathogens of periodontitis, including Porphyromonas gingivalis

In the case of C[C@@H](O)[C@H]1C(=O)N2C(C(=O)[O-])=C([C@H]3CCCO3)S[C@H]12.[Na+] [Compound 1, sodium (+)-(5R,6S)-6-[(R)-1-hydroxyethyl]-7-oxo-3-[(R)-2-tetrahydrofuryl]-4-thia-1-azabicyclo[3.2.0]hept-2-ene-2-carboxylate], the antibacterial activity [1] is listed as “potent antibacterial activity” and the antibacterial activity [2] is listed as “potent antibacterial activity”.
